Experimental data: article PMC9916778 (International Journal of Molecular Sciences, 2023)
Where two headings read alike, the source gives them in different places.

Experiments:
[1] = system: 22Rv1 prostate carcinoma cells; experiment: In vitro cytotoxicity (MTT assay), 22Rv1; assay type: cell-based, human; details: ± standard deviation, triplicate
Description: (§1) The testing was performed on the ovarian carcinoma (A2780), Cisplatin-resistant ovarian carcinoma (A2780R), prostate adenocarcinoma (PC-3), prostate carcinoma (22Rv1), and leukemia monocytic (THP-1) and intestinal colon adenocarcinoma (LS180) human cell lines that were obtained from the ATCC collection of cell lines and cultivated according to the producer’s instructions. The reference normal cell line of human fetal fibroblasts (MRC-5) was obtained from the same commercial source and maintained according to the producer’s instructions. The half-maximal inhibitory concentrations (IC50) were calculated from dose–response curves by means of the GraphPad Prism 6 software (GraphPad Software, San Diego, CA, USA).

[2] = system: THP-1 leukemia monocytic cells; experiment: In vitro cytotoxicity (MTT assay), THP-1; assay type: cell-based, human; details: ± standard deviation, triplicate
Description: as §1

A2780 cells [3] = experiment: Induction of apoptosis, Annexin V-FITC/PI staining; assay type: cell-based, human; details: A2780, half-cytotoxic concentration, 24 h
Description: (§2) The induction of cell death by complex (1) was studied by two methods in the A2780 cell line. Firstly, the induction of apoptosis was tested using an Annexin V-FITC/PI commercial kit (V13242, Thermo Fisher Scientific, USA). Second, caspase 3/7 activation was monitored using the CellEvent™ Caspase-3/7 Green Flow Cytometry Assay Kit (C10427, Thermo Fisher Scientific, USA). Both assays were performed according to the manufacturers’ protocols with one modification in the caspase induction assay: the use of CellEvent^TM Caspase-3/7 Green Detection Reagent was only for the detection of caspase 3/7 activation. The general procedure was as follows: 5 × 10^4 cells per well were seeded in a 24-well cell culture plate, and after 24 h, the cells were treated with 4 µM solution of complex (1) and cultivated for next 24 h. […] The trypsin was blocked by adding the cell culture medium to a final volume of 500 µL, and the resulting cell suspensions were divided into two separate 250 µL aliquots. The first set of aliquots was used to evaluate the Annexin V-FITC/PI assay, whilst the second one was used for the caspase 3/7 activation assay. Both assays were performed using a BD FACSVerse flow cytometer (Becton Dickinson, USA) in three independent experiments, each performed in duplicate.

A2780 cells [4] = experiment: Cell cycle analysis (flow cytometry); assay type: cell-based, human; details: A2780, half-cytotoxic concentration, 24 h
Description: After 24 h, the cells were treated with a 4 µM solution of complex (1) and cultivated for the next 24 h. Then, the cells were washed once with PBS (0.1 M, pH 7.4), and cell cycle analysis was performed using a BD Cycletest^TM Plus DNA kit (Becton Dickinson, Franklin Lakes, NJ, USA) according to the manufacturer’s protocol. The data were acquired using a BD FACSVerse flow cytometer (Becton Dickinson, USA) in three independent experiments, each performed in duplicate, while at least 5 × 10^3 events were recorded for each sample.

[5] = system: A2780 ovarian carcinoma cells; experiment: In vitro cytotoxicity (MTT assay), A2780; assay type: cell-based, human
Description: The reference normal cell line of human fetal fibroblasts (MRC-5) was obtained from the same commercial source and maintained according to the producer’s instructions. The half-maximal inhibitory concentrations (IC50) were calculated from dose–response curves by means of the GraphPad Prism 6 software (GraphPad Software, San Diego, CA, USA).

PPARγ = experiment: Immunocytochemical analysis of PPARγ expression and localisation; assay type: cell-based, human; details: 100 nM, 1 h pre-treatment, LPS-stimulated THP1-Blue NF-κB macrophages
Description: THP1-Blue™ NF-κB cells were seeded onto a µ-Slide 8 Well (Ibidi; Gräfelfing, Germany) and differentiated into macrophages by […] (PMA) at the final concentration of 50 ng/mL, as was described previously.
Differentiated macrophages were washed by PBS and covered by fresh serum-free medium for 2 h. […] One hour later, the cells were challenged by LPS for 24 h. Then, the cells were washed by PBS and fixed by 4% paraformaldehyde dissolved in PBS for 10 min. Cell permeabilization and blocking of free binding sites were performed by 0.1% (v/v) Triton X100 and 5% (w/v) bovine serum albumin (BSA) dissolved in PBS for 1 h at room temperature. After that, cells were washed by PBS with 0.1% (v/v) Tween 20 and covered by fresh PBS with 5% BSA and 0.1% Tween 20 containing Alexa Fluor® 546-labelled anti-PPARγ antibody diluted 1:100 (catalogue number sc-7273; Santa Cruz Biotechnology; Dallas, TX, USA) for a further 24 h. Then, cells were washed by PBS with 0.1% Tween 20 and incubated with Hoechst stain diluted 1:2000 for 10 min. The remaining stain was washed out by PBS and covered by fresh PBS for further microscope analysis. The confocal microscope Leica TCS SP8 MP (Leica Microsystems, Mannheim, Germany) was used for obtaining the images for the immunocytochemical analysis of PPARγ expression and localization.

[6] = system: human cancer cell lines (A2780, A2780R, PC-3, 22Rv1, and THP-1); experiment: In vitro cytotoxicity, summary statements over the panel of cell lines; assay type: cell-based
Description: as §1

A2780 cells [7] = experiment: Mitochondrial membrane potential analysis (MITO-ID); assay type: cell-based, human; details: A2780, half-cytotoxic concentration, 24 h
Description: The A2780 cells were seeded in 24-well cell culture plates at 5 × 10^4 cells/well and cultivated for 24 h. The next day, the complex (1) was added to a final concentration of 4 µM, and the cells were incubated for another 24 h. […] The cells were then isolated by centrifugation and resuspended in a staining solution prepared according to the manufacturer’s protocol from a MITO-ID® Membrane Potential Detection kit (Enzo Life Sciences, USA). Finally, the cells were analyzed using a BD FACSVerse flow cytometer (Becton Dickinson, USA). The control was carried out by treatment with 2 µM carbonyl cyanide 3-chlorophenylhydrazone (CCCP). Three independent experiments were conducted, each in duplicate.

[8] = system: MRC5 human fetal fibroblasts; experiment: In vitro cytotoxicity (MTT assay), normal MRC-5 fibroblasts; assay type: cell-based; details: ± standard deviation, triplicate, read-out: IC50, MRC5 (healthy cells)
Description: as §1

NF-κB = NF-κB activity in LPS-challenged cells (SEAP reporter); assay type: cell-based, human; details: 100 nM, 1 h pre-treatment, LPS 24 h, THP1-Blue NF-κB monocytes
Description: The effect of the tested compounds to influence the function of transcription factor NF-κB was determined on lipopolysaccharide (LPS)-challenged THP1-Blue™ NF-κB cells as we described previously. […] After 24 h incubation, the activity of NF-κB was determined as the amount of secreted embryonic alkaline phosphatase using Quanti-Blue™ medium (Invivogen).

[9] = system: PC-3 prostate adenocarcinoma cells; experiment: In vitro cytotoxicity (MTT assay), PC-3; assay type: cell-based, human; details: ± standard deviation, triplicate
Description: as §1

A2780 cells [10] = experiment: Induction of autophagy (CYTO-ID kit); assay type: cell-based, human; details: A2780, half-cytotoxic concentration, 24 h
Description: The induction of autophagy by complex (1) was studied using a CYTO-ID® Autophagy Detection Kit 2.0 (ENZO, New York, NY, USA) according to the manufacturer’s protocol. Briefly, the A2780 cells were seeded in a 24-well cell culture plate at 5 × 10^4 cells per well and cultivated for 24 h. The next day, the cells were treated with complex (1) at 4 µM. […] Then, the cells were stained with CYTO-ID® Green stain solution and incubated for 30 min in the dark. After the final wash with PBS, the cell suspensions were analyzed using the BD FACSVerse flow cytometer (Becton Dickinson, USA) in three separate experiments, while at least 10^4 events were recorded for each sample prepared in duplicates. The cells incubated with the mixture of chloroquine (10 µM) and rapamycin (0.5 µM) for 18 h were used as a positive control.

[11] = system: A2780R Cisplatin-resistant ovarian carcinoma cells; experiment: In vitro cytotoxicity (MTT assay), A2780R; assay type: cell-based, human; details: ± standard deviation, triplicate
Description: as §1

[12] = system: LS180 intestinal colon adenocarcinoma cells; experiment: In vitro cytotoxicity (MTT assay), LS180; assay type: cell-based, human; details: ± standard deviation, triplicate
Description: as §1

caspases 3/7 = experiment: Caspase 3/7 activation (flow cytometry); assay type: cell-based, human; details: A2780, half-cytotoxic concentration, 24 h
Description: as §2

A2780 cells [13] = details: 23 nM concentration ref 25; cited from earlier work
Caco-2 cells = details: read-out: IC50, antiproliferative effect, Caco-2 cells; cited from earlier work

Compound: c1ccc([PH]([Au][n]2cnc3c(NCc4ccco4)ncnc32)(c2ccccc2)c2ccccc2)cc1 [[Au(kin)(PPh3)] (1), [Au(kin)(PPh3)]]
- IC50 [1]: 3.7 ± 0.5 µM
- IC50 [2]: 1.1 ± 0.2 µM
- Cells in early stage apoptosis (Annexin V+/PI-) (A2780 cells [3]): around 10%
- Cells in late stage apoptosis (Annexin V+/PI+) (A2780 cells [3]): around 30%
- Population of cells in G2/M phase (A2780 cells [4]): 24.8 ± 1.0%
- Population of cells in S phase (A2780 cells [4]): 22.6 ± 1.6%
- Number of cells in the G0/G1 phase (A2780 cells [4]; vs untreated control): significant decrease in the number of cells in the G0/G1 phase
- IC50 ([5]; 24 h incubation, read-out: Time-dependent in vitro cytotoxicity (IC50), A2780, 24 h): 2.9 ± 0.7 µM
- IC50 ([5]; 72 h incubation, read-out: Time-dependent in vitro cytotoxicity (IC50), A2780, 72 h): 3 ± 0.6 µM
- IC50 ([5]; MTT, 24 h incubation, ± standard deviation, triplicate, read-out: IC50, A2780): 2.9 ± 0.7 µM
- IC50 ([5]; read-out: IC50, A2780, after 48 h and 72 h incubation, 48 h and 72 h incubation, insignificant changes): ~3 µM
- IC50 ([5]; read-out: Time-dependent in vitro cytotoxicity (IC50), A2780, 48 h, 48 h incubation): 3 ± 0.3 µM
- Effect on the amount of PPARγ (PPARγ): slightly increase the amount of PPARγ
- IC50 ([6]; A2780, A2780R, PC-3, 22Rv1, and THP-1, read-out: IC50 against human cancer cell lines (summary)): 1 to 5 µM
- selectivity index (SI) ([6]; IC50 for normal cell line/IC50 for cancerous cell line): higher than 2
- Damage to mitochondrial membranes (A2780 cells [7]): clearly the least effective
- IC50 [8]: > 10 µM
- Effect on LPS-stimulated NF-κB activity (NF-κB): did not show any effect on the activity of NF-κB
- IC50 [9]: 4.8 ± 1.3 µM
- Induction of autophagy (A2780 cells [10]): not shown to cause metabolic stress strong enough to induce the autophagy
- IC50 [11]: 5 ± 1.5 µM
- IC50 [12]: > 10 µM
- Cells with active executioner caspases 3/7 (caspases 3/7): around 40%

Compound: CCN(CC)C(=S)[S][Au][PH](c1ccccc1-c1ccccc1)(C(C)(C)C)C(C)(C)C [diethyldithiocarbamato-[(1,1′-biphenyl-2-yl)di-tert-butylphosphine] gold(I) complex]
- Cells in G2/M arrest, A2780 (A2780 cells [13]): around 30%

Compound: [Au(tpy)Cl(2-TU)]
- IC50 (Caco-2 cells): 0.51 ± 0.28 µM
